Measured values published in patent US6387950B2, “Treatment of tumors with RARα selective retinoid compounds in combination with other anti-tumor agents” (Allergan Sales, Inc., priority 2000, dated 2002).

Legend:
T47-D cells = experiment: cell proliferation assay (BrdU incorporation), T47-D; type: cell-based, human
Protocol: The SKBR-3 and T47-D cell cultures in which the assay procedures were performed are also well known and are available from sources well known in the art. Specifically, as is known, T-47D is an estrogen receptor positive (ER^+) human breast cancer cell line, and SK-BR-3 is an estrogen receptor negative (ER^−) human breast cancer cell line. The assay procedure which itself is well known in the art, involves determining incorporation of 5-bromo-2′-deoxyuridine (BrdU) into the cells. As is known, incorporation of less BrdU represents less cell proliferation (inhibition of cell proliferation), and this assay is accepted in the art as a measure of anti-proliferative or anti-tumor activity of the assayed agent or agents.
The estrogen receptor-positive (ER^+) cell line T-47D and the ER^−-cell line SK-BR-3 were cultured in Dulbecco's modification of Eagle's medium (DMEM Gibco BRL, Gaithersburg, Md.) supplemented with 10% fetal bovine serum (HyClone, Logan, Utah), 2 mM L-glutamine and 1% antibiotics-antimycotics (Gibco BRL). Cell lines were obtained from the American Type Culture Collection (ATCC, Rockville, Md., HTB-133 and HTB-30 for T47-D and SKBR-3, respectively). Cells were cultured at 37° C. in a humidified atmosphere containing 5% CO2.
Proliferation of cancer cell lines was determined using a commercial cell proliferation kit (Roche Diagnostics), essentially following the instructions of the manufacturer. Cells were seeded into 96-well tissue culture plates (Corning Incorporated, Corning, N.Y.) at a concentration of 3000 cells/well. After 24 hours, cells were treated with Compound 2 (AGN195183) and/or interferons (IFNs) or solvent alone. The appropriate concentrations of Compound 2 (AGN195183) used in this study were between 10^−11M and 10^−6M; IFNs concentrations were between 25 and 1000 Unit/ml. Culture media were changed every 72 hours. After 7days, 10 μl of 5-bromo-2′-deoxyuridine (BrdU) was added to each well. Incubation with BrdU was stopped 24 hours later by adding 100 μl of anti-BrdU antibody to each well. The amount of BrdU incorporated into the DNA of proliferating cells was assessed by measuring absorbance at 450 nm. Each experiment was performed in triplicate.
The growth inhibition observed in the cell cultures as a result of treatment with a combination of Compound 2 (AGN195183) of the invention and the interferons (IFNs) was analyzed for synergistic and additive effects.
Synergism was defined as: %A×% B>%AB
Additivity was defined as: %A×%B=%AB
where A and B are the effects of each individual agent and AB is the effect of the combination, in accordance with the teaching of Aapro et al., Cancer Chemother. Pharmacol., 10: 161 -166, 1983, and Marth et al., J. Natl. Cancer Inst., 77:1197-1202, 1986), both of which are expressly incorporated herein by reference.
Referring now to the graphs of FIGS. 1 through 12, each of these represents the results obtained in the above described assays where SKBR-3 and T47-D cells, respectively, were treated with a combination of Compound 2 of the invention and human recombinant interferon (IFN) α, β, and γ, respectively. The graph of FIG. 13 illustrates the results of treatment of these two cell cultures only with Compound 2 of the invention, without the use of any other anti-tumor agent. In each of these graphs the incorporation of 5-bromo-2′-deoxyuridine (BrdU) is plotted on the Y (vertical) axis and varying concentration of Compound 2 of the invention or varying concentration of IFNα. IFNβ or of IFNγ, respectively is plotted on the X (horizontal) axis. The concentration of the interferons is expressed in international units, as is accepted in the art, whereas the molar concentration of Compound 2 is plotted on a logarithmic scale. […]

RARβ receptors = target: T1, RARβ receptors (Homo sapiens, UniProt P10826); experiment: chimeric receptor transactivation assay, RARβ; type: cell-based; conditions: agonist activity
T1 sequence (P10826 183-417 limits assumed): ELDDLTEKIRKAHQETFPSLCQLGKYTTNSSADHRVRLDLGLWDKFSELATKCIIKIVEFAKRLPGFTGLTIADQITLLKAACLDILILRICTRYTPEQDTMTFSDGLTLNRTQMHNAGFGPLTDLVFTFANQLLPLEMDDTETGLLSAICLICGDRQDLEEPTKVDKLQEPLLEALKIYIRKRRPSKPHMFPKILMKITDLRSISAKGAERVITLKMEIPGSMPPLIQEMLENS
Description: For example, a chimeric receptor transactivation assay which tests for agonist-like activity in the RARα, RARβ, RARγ, RXRα receptor subtypes, and which is based on work published by Feigner P. L. and Holm M. (1989) Focus, 112 is described in detail in U.S. Pat. No. 5,455,265. The specification of U.S. Pat. No. 5,455,265 is hereby expressly incorporated by reference.
The results obtained in this assay are expressed in EC50 numbers, as they are also in the chimeric receptor transactivation assay.

Q: Which “anti-proliferative effect of the combination (BrdU incorporation)” value (“anti-proliferative effect” for short) (T47-D cells; Compound 2 100 nM, IFNα varied, FIG. 7) does the source give for `CC1(C)CCC(C)(C)c2c1cc(C(=O)Nc1cc(F)c(C(=O)O)c(F)c1)c(O)c2Cl` [Compound 2, 2,6-Difluoro-4-[(3-hydroxy-4-chloro-5,5,8 8-tetramethyl-5,6,7,8-tetrahydronaphthalene-2-carbonyl) -amino]-benzoic acid] here?
A: additive

Q: What about the “anti-proliferative effect” value (T47-D cells; Compound 2 100 nM, IFNβ varied, FIG. 8) of the same compound?
A: significantly synergistic

Q: And the “anti-proliferative effect” value (T47-D cells; Compound 2 100 nM, IFNβ varied, FIG. 8, listed as AGN 195183)?
A: synergism

Q: And the “anti-proliferative effect” value (T47-D cells; Compound 2 100 nM, IFNγ varied, FIG. 9)?
A: significantly synergistic

Q: What about the “anti-proliferative effect” value (T47-D cells; Compound 2 100 nM, IFNγ varied, FIG. 9, listed as AGN 195183) of the same compound?
A: synergism

Q: What about the “anti-proliferative effect” value (T47-D cells; IFNα 100 U/ml, Compound 2 varied, FIG. 10) of the same compound?
A: not very effective and merely additive

Q: And the “anti-proliferative effect” value (T47-D cells; IFNβ 100 U/ml, Compound 2 varied, FIG. 11)?
A: synergistic inhibition

Q: And the “anti-proliferative effect” value (T47-D cells; IFNβ 100 U/ml, Compound 2 varied, FIG. 11, listed as AGN 195183)?
A: synergism

Q: What about the “anti-proliferative effect” value (T47-D cells; IFNγ 100 U/ml, Compound 2 varied, FIG. 12) of the same compound?
A: synergistic inhibition was observed, in the cotreatment with IFNγ only at higher concentrations of Compound 2

Q: What about the “anti-proliferative effect” value (T47-D cells; IFNγ 100 U/ml, Compound 2 varied, FIG. 12, listed as AGN 195183) of the same compound?
A: synergism

Q: What about the EC50 (RARβ receptors) of the same compound?
A: > 10 µM
